The values that follow come from patent publication US10710992B2, “Substituted pyridinones as bromodomain inhibitors” (Zenith Epigenetics Ltd., priority 2014, dated 2020).

Assay [1] has as its target T1, Brd4 bromodomain 1 (BRD4(1)) (Homo sapiens, UniProt O60885).
T1 construct: made in house; host or cells: E. coli BL21(DE3)
The assay is described as follows: Inhibition of tetra-acetylated histone H4 binding to BET bromodomain (HTRF/FRET). The note with it: His-tagged bromodomain 200 nM, tetra-acetylated histone H4 peptide, 2 h room temperature. As to the method:
Proteins were cloned and overexpressed with a N-terminal 6× His tag, then purified by nickel affinity followed by size exclusion chromatography. Briefly, E. coli BL21(DE3) cells were transformed with a recombinant expression vector encoding N-terminally Nickel affinity tagged bromodomains from Brd2, Brd3, Brd4. Cell cultures were incubated at 37° C. with shaking to the appropriate density and induced overnight with IPTG. The supernatant of lysed cells was loaded onto Ni-IDA column for purification. Eluted protein was pooled, concentrated and further purified by size exclusion chromatography. Fractions representing monomeric protein were pooled, concentrated, aliquoted, and frozen at −80° C. for use in subsequent experiments.
Binding of tetra-acetylated histone H4 and BET bromodomains was confirmed by a Homogenous Time Resolved Fluorescence Resonance Energy Transfer (HTRF®) method. N-terminally His-tagged bromodomains (200 nM) and biotinylated tetra-acetylated historic H4 peptide (25-50 nM, Millipore) were incubated in the presence of Europium Cryptate-labeled streptavidin (Cisbio Cat. #610SAKLB) and XL665-labeled monoclonal anti-His antibody (Cisbio Cat. #61HISXLB) in a white 96 well microtiter plate (Greiner). For inhibition assays, serially diluted test compound was added to these reactions in a 0.2% final concentration of DMSO. Duplicate wells were used for each concentration tested. Final buffer concentrations were 30 mM HEPES pH 7.4, 30 mM NaCl, 0.3 mM CHAPS, 20 mM phosphate pH 7.0, 320 mM KF, 0.08% BSA. After a 2 h incubation at room temperature, fluorescence was measured at 665 and 620 nm with a SynergyH4 plate reader (Biotek). The binding inhibitory activity was shown by a decrease in 665 nm relative to […] fluorescence. IC50 values were determined from a dose response curve.

Assay [2] has as its system c-myc in Human AML MV4-11 cells. The assay is described as follows: Inhibition of cMYC expression in cancer cell lines (mRNA, real-time PCR). The format is cell-based. As to conditions: Homo sapiens, 3 h, cMYC mRNA normalized to Cyclophilin. The procedure: MV4-11 cells (CRL-9591) were plated at a density of 2.5×10^4 cells per well in 96 well U-bottom plates and treated with increasing concentrations of test compound or DMSO (0.1%) in IMDM media containing 10% FBS and penicillin/streptomycin, and incubated for 3 h at 37° C. Triplicate wells were used for each concentration. Cells were pelleted by centrifugation and harvested using the mRNA Catcher PLUS kit according to manufacturer's instructions. The eluted mRNA isolated was then used in a one-step quantitative real-time PCR reaction, using components of the RNA UltraSense™ One-Step Kit (Life Technologies) together with Applied Biosystems TaqMan® primer-probes for cMYC and Cyclophilin. Real-time PCR plates were run on a ViiA™ 7 real time PCR machine (Applied Biosystems), data was analyzed, normalizing the Ct values for cMYC to an internal control, prior to determining the fold expression of each sample, relative to the control.
A general note: In qPCR the cycle at which signal appears reflects the starting amount.

The subject of another assay is Human AML MV-4-11 cells. The assay is described as follows: Inhibition of cell proliferation in cancer cell lines (CellTiter Aqueous One). The assay is classed as cell-based. As to conditions: Homo sapiens; MV4-11 cells, 72 h. The procedure:
MV4-11 cells (CRL-9591) were plated at a density of 5×10^4 cells per well in 96 well flat bottom plates and treated with increasing concentrations of test compound or DMSO (0.1%) in IMDM media containing 10% FBS and penicillin/streptomycin. Triplicate wells were used for each concentration and a well containing only media was used as a control. Plates were incubated at 37° C., 5% CO2 for 72 h before adding 20 μL of the CellTiter Aqueous One Solution (Promega) to each well and incubated at 37° C., 5% CO2 for an additional 3-4 h. The absorbance was read at 490 nm in a spectrophotometer and the percentage of cell titer relative to DMSO-treated cells was calculated after correcting for background by subtracting the blank well's signal. IC50 values were calculated using the GraphPad Prism software.

As usually defined, the IC50 is the point on the concentration scale where inhibition reaches its midpoint.

As for `Cc1noc(C)c1-c1c[nH]c(=O)c(NCc2cnoc2)c1` [Example 31, 5-(3,5-dimethylisoxazol-4-yl)-3-((isoxazol-4-ylmethyl)amino)pyridin-2(1H)-one], in assay [1], the IC50 fell in the range of 0.3 to 3 µM. Consider `Cc1noc(C)c1-c1c[nH]c(=O)c(Nc2ccc(Cl)cc2)c1` [Example 29, 3-((4-chlorophenyl)amino)-5-(3,5-dimethylisoxazol-4-yl)pyridin-2(1H)-one], for which the IC50 lay within 0.3 to 3 µM in assay [1], 3 to 30 µM in assay [2] and 3 to 30 µM with Human AML MV-4-11 cells. Take `Cc1noc(C)c1-c1c[nH]c(=O)c(NC(C)c2ccc(Cl)cc2)c1` (stereo not drawn) [Example 18, 3-((1-(4-chlorophenyl)ethyl)amino)-5-(3,5-dimethylisoxazol-4-yl)pyridin-2(1H)-one]: the IC50 in assay [1] was 0.3 to 3 µM; in assay [2] it was 0.3 to 3 µM; with Human AML MV-4-11 cells, 3 to 30 µM. With `Cc1noc(C)c1-c1c[nH]c(=O)c(Oc2ccccc2)c1` [Example 5, 5-(3,5-dimethylisoxazol-4-yl)-3-phenoxypyridin-2(1H)-one], the IC50 in assay [1] was 0.3 to 3 µM. Regarding `Cc1noc(C)c1-c1c[nH]c(=O)c(NCc2ccc(Br)cc2)c1` [Example 19, 3-((4-bromobenzyl)amino)-5-(3,5-dimethylisoxazol-4-yl)pyridin-2(1H)-one], the IC50 in assay [1] was 0.3 to 3 µM; in assay [2] it was 3 to 30 µM; with Human AML MV-4-11 cells, 3 to 30 µM. In the case of `Cc1noc(C)c1-c1c[nH]c(=O)c(Nc2ccc(F)cc2)c1` [Example 16, 5-(3,5-dimethylisoxazol-4-yl)-3-((4-fluorophenyl)amino)pyridin-2(1H)-one], the IC50 in assay [1] lay in the range of 0.3 to 3 µM. Still for that read-out and setting: for `Cc1noc(C)c1-c1c[nH]c(=O)c(OCc2ccccn2)c1` [Example 26, 5-(3,5-dimethylisoxazol-4-yl)-3-(pyridin-2-ylmethoxy)pyridin-2(1H)-one] the value was 0.3 to 3 µM. On the same count and under the same terms, with `Cc1noc(C)c1-c1c[nH]c(=O)c(NCc2nc3ccccc3[nH]2)c1` [Example 38, 3-(((1H-benzo[d]imidazol-2-yl)methyl)amino)-5-(3,5-dimethylisoxazol-4-yl)pyridin-2(1H)-one] the figure was 0.3 to 3 µM. As for `COc1cccc(Nc2cc(-c3c(C)noc3C)c[nH]c2=O)c1` [Example 7, 5-(3,5-dimethylisoxazol-4-yl)-3-((3-methoxyphenyl)amino)pyridin-2(1H)-one], the IC50 in assay [1] fell in the range of 0.3 to 3 µM; in the assay with Human AML MV-4-11 cells, 3 to 30 µM. Take `Cc1noc(C)c1-c1c[nH]c(=O)c(Nc2ccccc2F)c1` [Example 15, 5-(3,5-dimethylisoxazol-4-yl)-3-((2-fluorophenyl)amino)pyridin-2(1H)-one]: the IC50 in assay [1] fell in the range of 0.3 to 3 µM. For `Cc1noc(C)c1-c1c[nH]c(=O)c(OCc2ccc(C#N)cc2)c1` [Example 25, 4-(((5-(3,5-dimethylisoxazol-4-yl)-2-oxo-1,2-dihydropyridin-3-yl)oxy)methyl)benzonitrile], the half-inhibitory concentration (IC50) in assay [1] fell in the range of 0.3 to 3 µM. Same read-out and setting: with `Cc1noc(C)c1-c1c[nH]c(=O)c(-c2c(C)noc2C)c1` [Example 32, 3,5-bis(3,5-dimethylisoxazol-4-yl)pyridin-2(1H)-one] the figure was 3 to 30 µM.

`Cc1noc(C)c1-c1c[nH]c(=O)c(NCCc2ccccc2)c1` [Example 22, 5-(3,5-dimethylisoxazol-4-yl)-3-(phenethylamino)pyridin-2(1H)-one]: the IC50 in assay [1] was in the range of 0.3 to 3 µM. The same measure, in the same setting: with `Cc1noc(C)c1-c1c[nH]c(=O)c(Nc2ccc(C#N)cc2)c1` [Example 28, 4-((5-(3,5-dimethylisoxazol-4-yl)-2-oxo-1,2-dihydropyridin-3-yl)amino)benzonitrile] the figure was 0.3 to 3 µM.
